pIC50: −log10 of the molar value.
Target: CDK7/CycH/MNAT1 (Homo sapiens (Human), UniProt P50613)
Test: Biochemical Assay for CDK7 (TR-FRET kinase assay)
Conditions: 60 min pre-incubation with kinase, 1 mM ATP; for % inhibition @ 10 μM / inhibition at 10 µM: 10 μM compound
Protocol: Biochemical Assay for CDK7:
The ability of compounds to inhibit CDK7 kinase activity was tested in a TR-FRET assay using 5 nM of CDK7/CycH/MNAT1 obtained from Invitrogen, USA. Test compounds were pre-incubated with the kinase at room temperature for 60 min. After the incubation, substrate mix [100 nM Ultra-light MBP (Perkin Elmer, USA) and 1 mM ATP (Sigma)] was added. The above reaction was stopped by the addition of 40 mM EDTA after 60 minutes of kinase reaction. 1 nM Eu-labelled antiphospho-MBP antibody [Perkin Elmer, USA] was added, mixed well and the fluorescence emission at 615 nm and 665 nm [excitation at 340 nm] was measured. The final DMSO concentration in the assay was 1%. For IC50 determination, appropriate concentrations were made by ⅓^rd serial dilutions of 10 mM DMSO stock solution of test compound. All the fluorescence measurements were made in a Victor 3 Multilabel Counter [Perkin Elmer, USA]. The IC50 was determined by fitting the dose response data to sigmoidal curve fitting equation using GraphPad Prism software V5. To identify compounds that inhibit CDK7 irreversibly, time depended inhibition studies were carried by pre-incubating compound with the enzyme at three time points (20, 60 and 180 min) and carrying out assay as described above.
The compounds were screened by the above mentioned assay procedure.

Sequence of CDK7/CycH/MNAT1 (P50613 whole entry): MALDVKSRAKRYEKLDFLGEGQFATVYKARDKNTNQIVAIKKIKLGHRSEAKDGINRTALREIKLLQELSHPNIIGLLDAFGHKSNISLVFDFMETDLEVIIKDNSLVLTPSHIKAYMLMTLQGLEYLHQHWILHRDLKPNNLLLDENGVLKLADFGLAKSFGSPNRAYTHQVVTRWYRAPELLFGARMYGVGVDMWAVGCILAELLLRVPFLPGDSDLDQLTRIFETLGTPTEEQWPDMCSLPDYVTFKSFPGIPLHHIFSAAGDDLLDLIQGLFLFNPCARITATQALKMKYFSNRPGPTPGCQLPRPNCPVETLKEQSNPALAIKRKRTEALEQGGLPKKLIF
Sequence of CDK7/CycH/MNAT1 (P51946 whole entry partner): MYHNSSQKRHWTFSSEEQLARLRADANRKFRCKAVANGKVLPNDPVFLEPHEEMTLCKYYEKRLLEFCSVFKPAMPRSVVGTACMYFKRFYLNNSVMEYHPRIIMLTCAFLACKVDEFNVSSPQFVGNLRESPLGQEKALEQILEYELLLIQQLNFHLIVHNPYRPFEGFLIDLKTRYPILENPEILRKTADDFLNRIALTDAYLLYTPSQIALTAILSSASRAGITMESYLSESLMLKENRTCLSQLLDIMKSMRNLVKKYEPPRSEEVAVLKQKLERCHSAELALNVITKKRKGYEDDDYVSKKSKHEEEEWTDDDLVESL
Sequence of CDK7/CycH/MNAT1 (P51948 whole entry partner): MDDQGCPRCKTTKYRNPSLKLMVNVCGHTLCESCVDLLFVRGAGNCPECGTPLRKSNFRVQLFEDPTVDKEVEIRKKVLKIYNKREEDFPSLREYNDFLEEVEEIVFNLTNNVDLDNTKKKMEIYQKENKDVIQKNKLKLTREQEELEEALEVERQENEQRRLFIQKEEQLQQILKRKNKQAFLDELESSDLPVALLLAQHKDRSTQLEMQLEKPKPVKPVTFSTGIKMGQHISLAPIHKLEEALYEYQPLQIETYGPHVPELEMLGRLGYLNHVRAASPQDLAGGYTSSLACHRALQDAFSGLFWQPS

Row | SMILES | % inhibition @ 10 μM [%] | pIC50 | inhibition at 10 µM [%]
1 | CC(C(=O)Nc1cc(C2CC2)[nH]n1)c1cccc(-c2ccc(NC(=O)/C=C/CN(C)C)cc2)c1 (single isomer, unassigned) [Compound 2, (E)-N-(3′-(1-((5-cyclopropyl-1H-pyrazol-3-yl)amino)-1-oxopropan-2-yl)-[1,1′-biphenyl]-4-yl)-4-(dimethylamino)but-2-enamide] | 69 | < 7.00 | 
2 | CC(C(=O)Nc1cc(C2CC2)[nH]n1)c1cccc(-c2ccc(NC(=O)/C=C/CN3CCOCC3)nc2)c1 (single isomer, unassigned) [Compound 11, (E)-N-(5-(3-(1-((5-cyclopropyl-1H-pyrazol-3-yl)amino)-1-oxopropan-2-yl)phenyl)pyridin-2-yl)-4-morpholinobut-2-enamide] | 75 | < 7.00 | 
3 | C=CC(=O)Nc1ccc(-c2cccc(C(C)C(=O)Nc3cc(C4CC4)[nH]n3)c2)cn1 (single isomer, unassigned) [Compound 21, N-(5-(3-(1-((5-cyclopropyl-1H-pyrazol-3-yl)amino)-1-oxopropan-2-yl)phenyl)pyridin-2-yl)acrylamide] |  | < 7.00 | 89
4 | CC(C(=O)Nc1cc(C2CC2)[nH]n1)c1cccc(-c2ccc(NC(=O)/C=C/CN3CC[C@H](F)C3)nc2)c1 (single isomer, unassigned) [Compound 48] | 90 | 7.00 to 7.60 | 
5 | CC(C(=O)Nc1cc(C2CC2)[nH]n1)c1cccc(-c2ccc(NC(=O)/C=C/CN3CC[C@@H](F)C3)nc2)c1 (single isomer, unassigned) [Compound 51] | 90 | < 7.00 | 
6 | COC[C@@H]1CCCN1C/C=C/C(=O)Nc1ccc(-c2cccc(C(C)C(=O)Nc3cc(C4CC4)[nH]n3)c2)cn1 (single isomer, unassigned) [Compound 71] |  | < 7.00 | 81
7 | CC(C(=O)Nc1cc(C2CC2)[nH]n1)c1cccc(-c2ccc(NC(=O)/C=C/CN(C)C)cc2)c1 (centres unmarked) [Compound 1, (E)-N-(3′-(1-((5-cyclopropyl-1H-pyrazol-3-yl)amino)-1-oxopropan-2-yl)-[1,1′-biphenyl]-4-yl)-4-(dimethylamino)but-2-enamide] |  | 7.00 to 7.60 | 92
8 | CC(C(=O)Nc1cc(C2CC2)[nH]n1)c1ccc(F)c(-c2ccc(NC(=O)/C=C/CN(C)C)cc2)c1 (centres unmarked) [Compound 4, (E)-N-(5′-(1-((5-cyclopropyl-1H-pyrazol-3-yl)amino)-1-oxopropan-2-yl)-2′-fluoro-[1,1′-biphenyl]-4-yl)-4-(dimethylamino)but-2-enamide] |  | < 7.00 | 95
9 | CC(C(=O)Nc1cc(C2CC2)[nH]n1)c1cc(-c2ccc(NC(=O)/C=C/CN(C)C)cc2)ccc1F (centres unmarked) [Compound 5, (E)-N-(3′-(1-((5-cyclopropyl-1H-pyrazol-3-yl)amino)-1-oxopropan-2-yl)-4′-fluoro-[1,1′-biphenyl]-4-yl)-4-(dimethylamino)but-2-enamide] |  | < 7.00 | 80
10 | CC(C(=O)Nc1cc(C2CC2)n(C)n1)c1cccc(-c2ccc(NC(=O)/C=C/CN(C)C)cc2)c1 (centres unmarked) [Compound 6, (E)-N-(3′-(1-((5-cyclopropyl-1-methyl-1H-pyrazol-3-yl)amino)-1-oxopropan-2-yl)-[1,1′-biphenyl]-4-yl)-4-(dimethylamino)but-2-enamide] |  |  | 0
11 | CN(C)C/C=C/C(=O)Nc1ccc(-c2cccc(CC(=O)Nc3cc(C4CC4)[nH]n3)c2)cc1 [Compound 7, (E)-N-(3′-(2-((5-cyclopropyl-1H-pyrazol-3-yl)amino)-2-oxoethyl)-[1,1′-biphenyl]-4-yl)-4-(dimethylamino)but-2-enamide] |  | < 7.00 | 84
12 | CCc1cc(NC(=O)C(C)c2cccc(-c3ccc(NC(=O)/C=C/CN(C)C)cc3)c2)n[nH]1 (centres unmarked) [Compound 8, (E)-4-(dimethylamino)-N-(3′-(1-((5-ethyl-1H-pyrazol-3-yl)amino)-1-oxopropan-2-yl)-[1,1′-biphenyl]-4-yl)but-2-enamide] |  | < 7.00 | 92
13 | CC(C(=O)Nc1cc(C(C)(C)C)[nH]n1)c1cccc(-c2ccc(NC(=O)/C=C/CN(C)C)cc2)c1 (centres unmarked) [Compound 9, (E)-N-(3′-(1-((5-(tert-butyl)-1H-pyrazol-3-yl)amino)-1-oxopropan-2-yl)-[1,1′-biphenyl]-4-yl)-4-(dimethylamino)but-2-enamide] |  | < 7.00 | 60
14 | CCC(C(=O)Nc1cc(C2CC2)[nH]n1)c1cccc(-c2ccc(NC(=O)/C=C/CN(C)C)cc2)c1 (centres unmarked) [Compound 13, (E)-N-(3′-(1-((5-cyclopropyl-1H-pyrazol-3-yl)amino)-1-oxobutan-2-yl)-[1,1′-biphenyl]-4-yl)-4-(dimethylamino)but-2-enamide] |  | 7.00 to 7.60 | 97
15 | CC(C(=O)Nc1cc(C2CC2)[nH]n1)c1cccc(-c2ccc(NC(=O)/C=C/CN(C)C)c(F)c2)c1 (centres unmarked) [Compound 14, (E)-N-(3′-(1-((5-cyclopropyl-1H-pyrazol-3-yl)amino)-1-oxopropan-2-yl)-3-fluoro-[1,1′-biphenyl]-4-yl)-4-(dimethylamino)but-2-enamide] |  | < 7.00 | 95
16 | CC(C(=O)Nc1cc(C2CC2)[nH]n1)c1cccc(-c2ccc(NC(=O)/C=C/CN(C)C)cn2)c1 (centres unmarked) [Compound 16, (E)-N-(6-(3-(1-((5-cyclopropyl-1H-pyrazol-3-yl)amino)-1-oxopropan-2-yl)phenyl)pyridin-3-yl)-4-(dimethylamino)but-2-enamide] |  | 7.00 to 7.60 | 95
17 | CC(C(=O)Nc1cc(C2CC2)[nH]n1)c1cccc(-c2ccc(NC(=O)/C=C/CN(C)C)cc2F)c1 (centres unmarked) [Compound 17, (E)-N-(3′-(1-((5-cyclopropyl-1H-pyrazol-3-yl)amino)-1-oxopropan-2-yl)-2-fluoro-[1,1′-biphenyl]-4-yl)-4-(dimethylamino)but-2-enamide] |  | < 7.00 | 80

The next lines start with the values.

Row | % inhibition @ 10 μM [%] | pIC50 | inhibition at 10 µM [%] | SMILES
18 | 99 | 7.00 to 7.60 |  | CC(C(=O)Nc1cc(C2CC2)[nH]n1)c1cccc(-c2ccc(NC(=O)/C=C/CN(C)C)cc2)c1 (single isomer, unassigned) [Compound 3, (E)-N-(3′-(1-((5-cyclopropyl-1H-pyrazol-3-yl)amino)-1-oxopropan-2-yl)-[1,1′-biphenyl]-4-yl)-4-(dimethylamino)but-2-enamide]
19 | 98 | > 7.60 |  | CC(C(=O)Nc1cc(C2CC2)[nH]n1)c1cccc(-c2ccc(NC(=O)/C=C/CN3CCOCC3)nc2)c1 (single isomer, unassigned) [Compound 12, (E)-N-(5-(3-(1-((5-cyclopropyl-1H-pyrazol-3-yl)amino)-1-oxopropan-2-yl)phenyl)pyridin-2-yl)-4-morpholinobut-2-enamide]
20 | 97 | > 7.60 |  | C=CC(=O)Nc1ccc(-c2cccc(C(C)C(=O)Nc3cc(C4CC4)[nH]n3)c2)cn1 (single isomer, unassigned) [Compound 22, N-(5-(3-(1-((5-cyclopropyl-1H-pyrazol-3-yl)amino)-1-oxopropan-2-yl)phenyl)pyridin-2-yl)acrylamide]
21 |  | > 7.60 | 91 | CC(C(=O)Nc1cc(C2CC2)[nH]n1)c1cccc(-c2ccc(NC(=O)/C=C/CN3CC[C@H](F)C3)nc2)c1 (single isomer, unassigned) [Compound 47]
22 |  | > 7.60 | 94 | CC(C(=O)Nc1cc(C2CC2)[nH]n1)c1cccc(-c2ccc(NC(=O)/C=C/CN3CC[C@@H](F)C3)nc2)c1 (single isomer, unassigned) [Compound 50]
23 | 100 | > 7.60 |  | CC(C(=O)Nc1cc(C2CC2)[nH]n1)c1cccc(-c2ccc(NC(=O)/C=C/CN3CCCC3)nc2)c1 (single isomer, unassigned) [Compound 53, (E)-N-(5-(3-(1-((5-cyclopropyl-1H-pyrazol-3-yl)amino)-1-oxopropan-2-yl)-phenyl)pyridin-2-yl)-4-(pyrrolidin-1-yl)but-2-enamide]
24 | 78 | > 7.60 |  | CC(C(=O)Nc1cc(C2CC2)[nH]n1)c1cccc(-c2ccc(NC(=O)/C=C/CN3CCCC3)nc2)c1 (single isomer, unassigned) [Compound 54, (E)-N-(5-(3-(1-((5-cyclopropyl-1H-pyrazol-3-yl)amino)-1-oxopropan-2-yl)-phenyl)pyridin-2-yl)-4-(pyrrolidin-1-yl)but-2-enamide]
25 | 98 | > 7.60 |  | COC[C@@H]1CCCN1C/C=C/C(=O)Nc1ccc(-c2cccc(C(C)C(=O)Nc3cc(C4CC4)[nH]n3)c2)cn1 (single isomer, unassigned) [Compound 72]
26 |  | > 7.60 | 99 | CC(C(=O)Nc1cc(C2CC2)[nH]n1)c1cccc(-c2ccc(NC(=O)/C=C/CN3CCOCC3)nc2)c1 (centres unmarked) [Compound 10, (E)-N-(5-(3-(1-((5-cyclopropyl-1H-pyrazol-3-yl)amino)-1-oxopropan-2-yl)phenyl)pyridin-2-yl)-4-morpholinobut-2-enamide]
27 |  | > 7.60 | 93 | CC(C(=O)Nc1cc(C2CCC2)[nH]n1)c1cccc(-c2ccc(NC(=O)/C=C/CN(C)C)cc2)c1 (centres unmarked) [Compound 15, (E)-N-(3′-(1-((5-cyclobutyl-1H-pyrazol-3-yl)amino)-1-oxopropan-2-yl)-[1,1′-biphenyl]-4-yl)-4-(dimethylamino)but-2-enamide]
